Common to all, as to conditions: no ATP
One assay concerns the target T1, FLT3 K663Q (Homo sapiens, UniProt P36888, K663Q).
T1 construct: purchased DiscoverX (KINOMEscan); host or cells: E. coli (T7 phage) or HEK-293
T1 sequence (P36888 27-993 K663Q): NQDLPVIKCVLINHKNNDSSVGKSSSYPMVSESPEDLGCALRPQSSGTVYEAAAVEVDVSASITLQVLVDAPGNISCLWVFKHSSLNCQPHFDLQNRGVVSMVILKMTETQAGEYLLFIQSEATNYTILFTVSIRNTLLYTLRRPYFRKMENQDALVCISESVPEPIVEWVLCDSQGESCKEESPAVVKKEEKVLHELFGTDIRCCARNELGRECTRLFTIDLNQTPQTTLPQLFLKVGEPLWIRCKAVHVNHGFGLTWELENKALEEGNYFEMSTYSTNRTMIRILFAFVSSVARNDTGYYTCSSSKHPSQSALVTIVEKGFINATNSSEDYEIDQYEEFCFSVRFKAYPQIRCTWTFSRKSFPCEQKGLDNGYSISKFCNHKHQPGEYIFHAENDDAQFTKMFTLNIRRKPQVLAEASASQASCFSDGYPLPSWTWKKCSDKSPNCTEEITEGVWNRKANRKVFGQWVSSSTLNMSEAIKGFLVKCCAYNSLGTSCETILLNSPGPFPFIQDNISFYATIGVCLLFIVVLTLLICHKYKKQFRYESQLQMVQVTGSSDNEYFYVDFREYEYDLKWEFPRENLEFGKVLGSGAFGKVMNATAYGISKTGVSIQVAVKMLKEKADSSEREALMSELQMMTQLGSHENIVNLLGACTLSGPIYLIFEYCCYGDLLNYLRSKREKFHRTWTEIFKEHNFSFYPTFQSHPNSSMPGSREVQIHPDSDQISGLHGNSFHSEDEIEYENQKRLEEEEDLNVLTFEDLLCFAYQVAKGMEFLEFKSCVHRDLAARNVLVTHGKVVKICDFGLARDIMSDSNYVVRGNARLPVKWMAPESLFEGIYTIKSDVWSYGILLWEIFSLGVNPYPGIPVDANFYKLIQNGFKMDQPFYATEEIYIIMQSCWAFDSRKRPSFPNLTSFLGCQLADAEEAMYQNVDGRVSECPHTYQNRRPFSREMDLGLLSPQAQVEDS
In words: DiscoverX KINOMEscan competition binding, FLT3 K663Q. An excerpt:
(§1) Kinase binding data were obtained for various exemplary compounds prepared according to Examples 2-15 using the DiscoverX KINOMEscan® active site-directed competition binding site-directed assay protocol described below. […] As a result, the data report thermodynamic interaction affinities (Kd values), rather than IC50 values that are dependent on ATP concentrations. The assay uses a DNA-tagged version of the protein kinase, and an immobilized ligand bound to a solid support. Compounds that directly or indirectly prevent kinase binding to the immobilized ligand reduce the amount of kinase captured on the solid support, which is detected using an ultra-sensitive qPCR method. Affinity constants reported from the assay have been reported to be independent of the immobilized ligand used that is coupled to the solid support (See supplemental information in Fabian, M. A. et. al., (2005) Nat. […] Wodicka, L. […] Biol. 17, 1241-1249.) Kinase-tagged T7 phage strains were prepared in an E. coli host derived from the BL21 strain. E. coli were grown to log-phase and infected with T7 phage and incubated with shaking at 32° C. until lysis. […] Kds were determined using an 11-point 3-fold compound dilution series with three DMSO control points. […] The kinase concentration in the eluates was measured by qPCR. Binding constants (Kds) were calculated with a standard dose-response curve using the Hill equation. […]

The target in another assay is T2, IRAK4 (Homo sapiens, UniProt Q9NWZ3).
T2 sequence (Q9NWZ3 1-460): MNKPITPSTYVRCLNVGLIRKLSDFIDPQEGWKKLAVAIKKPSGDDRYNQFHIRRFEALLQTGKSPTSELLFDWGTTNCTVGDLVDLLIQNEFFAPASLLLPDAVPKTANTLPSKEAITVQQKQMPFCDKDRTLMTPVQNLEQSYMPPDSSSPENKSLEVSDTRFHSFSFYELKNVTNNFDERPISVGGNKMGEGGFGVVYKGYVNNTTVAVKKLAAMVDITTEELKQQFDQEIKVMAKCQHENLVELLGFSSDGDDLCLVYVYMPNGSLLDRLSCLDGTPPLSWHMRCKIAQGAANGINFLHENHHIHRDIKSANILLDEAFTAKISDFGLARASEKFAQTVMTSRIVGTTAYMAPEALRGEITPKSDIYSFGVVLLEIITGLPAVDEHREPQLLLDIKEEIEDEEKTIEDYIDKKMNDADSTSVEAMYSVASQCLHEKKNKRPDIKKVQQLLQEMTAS
In words: DiscoverX KINOMEscan competition binding, IRAK4. Set-up: purchased RBC (Reaction Biology) HotSpot assay.
From the text: as §1

In a further assay the target is T3, FLT3 Autoinh. (Homo sapiens, UniProt P36888).
T3 construct: purchased DiscoverX (KINOMEscan); host or cells: E. coli (T7 phage) or HEK-293
T3 sequence (P36888 564-993 limits assumed): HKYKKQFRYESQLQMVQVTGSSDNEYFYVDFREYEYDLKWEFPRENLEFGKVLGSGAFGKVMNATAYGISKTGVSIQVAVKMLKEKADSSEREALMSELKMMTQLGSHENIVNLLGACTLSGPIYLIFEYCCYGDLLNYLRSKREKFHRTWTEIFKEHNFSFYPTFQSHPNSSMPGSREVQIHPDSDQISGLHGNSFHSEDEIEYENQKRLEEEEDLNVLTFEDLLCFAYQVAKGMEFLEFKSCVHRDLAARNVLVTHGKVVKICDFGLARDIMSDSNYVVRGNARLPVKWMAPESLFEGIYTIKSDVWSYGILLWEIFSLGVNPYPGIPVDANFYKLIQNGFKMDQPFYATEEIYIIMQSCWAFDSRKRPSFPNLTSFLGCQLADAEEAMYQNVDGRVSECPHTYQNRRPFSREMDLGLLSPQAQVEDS
The assay is described as follows: DiscoverX KINOMEscan competition binding, FLT3 Autoinh.
From the text: as §1

The Kd is the free concentration of one partner at which half of the binding sites on the other are occupied at equilibrium, for simple one-to-one binding. A high value points to lower affinity. Take `COc1cc2ncc(-c3nc(N[C@H]4CNCC[C@@H]4F)c(F)cc3F)n2nc1C1CCC1` [Compound 15a, 6-(6-cyclobutyl-7-methoxyimidazo[1,2-b]pyridazin-3-yl)-3,5-difluoro-N-((3S,4S)-4-fluoropiperidin-3-yl)pyridin-2-amine]: the results for the Kd on FLT3 K663Q, at IRAK4 and at FLT3 Autoinh. were 0.62 nM, 0.32 nM and 5.8 nM, respectively.

The record behind these values is patent US20250368648A1, “MULTI-CYCLIC IRAK AND FLT3 INHIBITING COMPOUNDS AND USES THEREOF” (CHILDREN'S HOSPITAL MEDICAL CENTER, priority 2022, published 2025).
